SMILES strings stand for the structures. Bounds are passed on as bounds.

Usually IC50 stands for the midpoint of a concentration-inhibition curve. Low values mean higher potency, high ones lower potency.

The experiment deals with P2Y purinoceptor 12 (Homo sapiens, UniProt Q9H244). Nature of the experiment: ChEBML_162514. An excerpt: Ability to displace [3H]2-MeS-ADP from human Purinergic receptor P2Y12
P2Y purinoceptor 12, sequence (Q9H244 whole entry): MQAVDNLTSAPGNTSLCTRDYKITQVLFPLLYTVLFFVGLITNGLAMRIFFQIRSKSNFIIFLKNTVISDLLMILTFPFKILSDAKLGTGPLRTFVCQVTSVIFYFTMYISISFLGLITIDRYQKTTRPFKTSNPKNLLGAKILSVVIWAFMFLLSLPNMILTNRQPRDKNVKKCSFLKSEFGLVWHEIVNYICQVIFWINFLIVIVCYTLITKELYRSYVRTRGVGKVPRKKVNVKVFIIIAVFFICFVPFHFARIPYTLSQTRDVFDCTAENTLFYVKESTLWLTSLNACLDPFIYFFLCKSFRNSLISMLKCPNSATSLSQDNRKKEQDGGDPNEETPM

The molecule `O=C1CS(=O)(=O)N=C2Sc3cc(OC(F)(F)F)ccc3N12` [2,2-Dioxo-7-trifluoromethoxy-2H-2lambda*6*,9-dithia-1,4a-diaza-fluoren-4-ol] displayed a concentration for half-maximal inhibition (IC50) above 120 µM.
As for `O=C(CS(=O)(=O)Nc1nc2ccc(Oc3ccccc3)cc2s1)C1C(=O)N2C(=NS1(=O)=O)Sc1cc(Oc3ccccc3)ccc12` (stereo unspecified) [2-(4-Hydroxy-2,2-dioxo-7-phenoxy-2H-2lambda*6*,9-dithia-1,4a-diaza-fluoren-3-yl)-2-oxo-ethanesulfonic acid (6-phenoxy-benzothiazol-2-yl)-amide], the figure is above 50 µM.
As for `O=C(CS(=O)(=O)Nc1nc2ccc(-c3ccccc3)cc2s1)C1C(=O)N2C(=NS1(=O)=O)Sc1cc(-c3ccccc3)ccc12` (stereo unspecified) [2-(4-Hydroxy-2,2-dioxo-7-phenyl-2H-2lambda*6*,9-dithia-1,4a-diaza-fluoren-3-yl)-2-oxo-ethanesulfonic acid (6-phenyl-benzothiazol-2-yl)-amide], the figure is above 50 µM.
As for `O=C(CS(=O)(=O)Nc1nc2ccc([N+](=O)[O-])cc2s1)C1=C([O-])[n+]2c(sc3cc([N+](=O)[O-])ccc32)NS1(=O)=O` [2-(4-Hydroxy-7-nitro-2,2-dioxo-2H-2lambda*6*,9-dithia-1,4a-diaza-fluoren-3-yl)-2-oxo-ethanesulfonic acid (6-nitro-benzothiazol-2-yl)-amide], the figure is 35 µM; as for `O=C(CS(=O)(=O)Nc1nc2ccc(Cl)cc2s1)C1C(=O)N2C(=NS1(=O)=O)Sc1cc(Cl)ccc12` (stereo unspecified) [2-(7-Chloro-4-hydroxy-2,2-dioxo-2H-2lambda*6*,9-dithia-1,4a-diaza-fluoren-3-yl)-2-oxo-ethanesulfonic acid (6-chloro-benzothiazol-2-yl)-amide], 35 µM.
For `O=C(CS(=O)(=O)Nc1nc2ccc(C3CCCCC3)cc2s1)C1C(=O)N2C(=NS1(=O)=O)Sc1cc(C3CCCCC3)ccc12` (stereo unspecified) [2-(7-Cyclohexyl-4-hydroxy-2,2-dioxo-2H-2lambda*6*,9-dithia-1,4a-diaza-fluoren-3-yl)-2-oxo-ethanesulfonic acid (6-cyclohexyl-benzothiazol-2-yl)-amide], the IC50 is above 120 µM.

The record behind these values is BindingDB's records for doi:10.1016/s0960-894x(01)00313-4 (Cor Therapeutics, 2001).
